Consider two molecules from patent US5128347A, “Glycosidase inhibiting 1,4-dideoxy-4-fluoronojirimycin” (Monsanto Company, priority 1990, dated 1992).

Common to all, as to type: biochemical
The test system of experiment [1] is almond β-glucosidase. Nature of the experiment: β-Glucosidase inhibition assay, pH 4.8. Conditions: 5 mM test compound. On the procedure:
(§1) The glycosidase inhibition activity is determined by modifying an assay procedure described in Evans et al, Phytochemistry, 22, pp. 768-770 (1983). More particularly, yeast α-glucosidase and almond β-glucosidase activities were measured by the Evans et al method which was modified by assaying activities at pH 7.4 in N-2-hydroxyethylpiperazine-N-2-ethane sulfonic acid (HEPES) buffer, measuring in 96 well microtiter plates, and including 10% DMSO in control and test samples.
(§2) The release of p-nitrophenol from the substrate p-nitrophenylglycoside was measured spectrophotometrically in the presence and absence of test compound. Each assay included a known inhibitor of the enzyme as a standard. IC50 values were determined for compounds which inhibited the enzymes more than 50% at a 1 millimolar concentration.
β-Glucosidase Inhibition Assay
To 100 ul 50 mM sodium citrate buffer, pH 4.8, in a microtiter plate, 20 ul test compound in DMSO (DMSO alone in control) and 20 ul (0.017 units) β-glucosidase (Sigma) in citrate buffer were added and pre-incubated at room temperature 15 minutes. […] 50 ul 0.4 M NaOH was added and the absorption change at 405 nm was determined utilizing a Biotek EIA Autoreader. […] IC50 values were determined from the linear portion of the log concentration vs percent inhibition curve obtained from a minimum of 3 points. […]

Experiment [2] addresses T1, alpha mannosidase (Canavalia ensiformis, UniProt C0HJB3).
T1 sequence (C0HJB3 1-981): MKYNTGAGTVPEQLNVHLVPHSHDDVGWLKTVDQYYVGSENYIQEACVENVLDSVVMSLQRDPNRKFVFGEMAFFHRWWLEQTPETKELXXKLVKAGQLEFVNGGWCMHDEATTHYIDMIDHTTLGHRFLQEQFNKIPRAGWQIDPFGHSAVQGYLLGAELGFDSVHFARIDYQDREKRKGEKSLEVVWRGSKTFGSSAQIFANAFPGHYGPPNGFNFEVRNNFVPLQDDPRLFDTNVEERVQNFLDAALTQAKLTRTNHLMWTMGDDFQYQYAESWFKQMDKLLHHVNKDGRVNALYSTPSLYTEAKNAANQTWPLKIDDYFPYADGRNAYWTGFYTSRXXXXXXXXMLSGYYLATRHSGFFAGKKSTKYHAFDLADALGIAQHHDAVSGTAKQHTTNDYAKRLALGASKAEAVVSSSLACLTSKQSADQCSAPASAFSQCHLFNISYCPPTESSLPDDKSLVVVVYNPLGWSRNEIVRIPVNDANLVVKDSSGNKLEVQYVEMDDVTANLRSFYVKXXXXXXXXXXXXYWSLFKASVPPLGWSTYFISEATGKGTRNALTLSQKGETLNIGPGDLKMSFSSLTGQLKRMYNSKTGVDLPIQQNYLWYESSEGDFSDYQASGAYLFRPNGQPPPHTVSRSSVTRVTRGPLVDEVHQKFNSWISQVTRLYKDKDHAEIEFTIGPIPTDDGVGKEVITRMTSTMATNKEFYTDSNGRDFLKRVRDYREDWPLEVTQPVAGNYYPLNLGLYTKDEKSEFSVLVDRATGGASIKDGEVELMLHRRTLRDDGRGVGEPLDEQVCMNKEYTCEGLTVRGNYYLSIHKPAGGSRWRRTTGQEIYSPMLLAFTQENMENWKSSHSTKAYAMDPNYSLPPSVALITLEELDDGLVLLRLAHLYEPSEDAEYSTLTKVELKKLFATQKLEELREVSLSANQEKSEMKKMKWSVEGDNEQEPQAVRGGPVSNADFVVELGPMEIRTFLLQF
The experiment can be described thus: α-Mannosidase inhibition, pH 4.5. The following applies: 5 mM test compound, read-out: ALPHA MANNOSIDASE pH 4.5 (enzyme inhibition). On the procedure:
as §2

Experiment [3] has as its target T1, alpha mannosidase. The experiment can be described thus: α-Mannosidase inhibition, pH 7.4. Conditions: 5 mM test compound, read-out: ALPHA MANNOSIDASE pH 7.4 (enzyme inhibition). The protocol: as §2
The target of another experiment is T2, yeast α-glucosidase (Saccharomyces cerevisiae, UniProt P53341).
T2 construct: purchased Sigma
T2 sequence (P53341 whole entry): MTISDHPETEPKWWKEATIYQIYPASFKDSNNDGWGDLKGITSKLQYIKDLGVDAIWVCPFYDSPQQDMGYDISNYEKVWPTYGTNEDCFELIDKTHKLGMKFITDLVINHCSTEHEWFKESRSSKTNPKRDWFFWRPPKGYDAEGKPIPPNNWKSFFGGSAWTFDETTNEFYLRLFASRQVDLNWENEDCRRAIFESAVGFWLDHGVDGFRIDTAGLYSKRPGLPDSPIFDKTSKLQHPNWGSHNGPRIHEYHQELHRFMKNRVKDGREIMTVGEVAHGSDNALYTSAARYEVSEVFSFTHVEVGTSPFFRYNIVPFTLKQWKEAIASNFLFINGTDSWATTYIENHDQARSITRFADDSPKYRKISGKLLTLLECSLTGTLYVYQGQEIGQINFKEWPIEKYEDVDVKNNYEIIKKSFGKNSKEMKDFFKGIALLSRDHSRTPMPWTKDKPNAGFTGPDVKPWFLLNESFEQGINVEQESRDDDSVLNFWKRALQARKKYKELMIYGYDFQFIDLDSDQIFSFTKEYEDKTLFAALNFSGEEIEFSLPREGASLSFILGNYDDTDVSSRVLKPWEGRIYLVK
Nature of the experiment: α-Glucosidase inhibition assay, pH 7.4. Conditions: 5 mM test compound, read-out: ALPHA GLUCOSIDASE pH 7.4 (enzyme inhibition). The protocol: as §1
(§3) The release of p-nitrophenol from the substrate p-nitrophenylglycoside was measured spectrophotometrically in the presence and absence of test compound. Each assay included a known inhibitor of the enzyme as a standard. […]
To 100 ul 50 mM HEPES buffer, pH 7.4, in a microtiter plate, 20 ul test compound in DMSO (DMSO alone in control)and 40 ul (0.013 units) yeast α-glucosidase (Sigma) in HEPES buffer were added and pre-incubated at room temperature 15 minutes. 40 ul 1.25 mM p-nitrophenyl-α-D-glucopyranoside (Sigma) in HEPES buffer, as substrate was added and the absorbance change at 405 nm was monitored in a Biotek EIA Autoreader. Absorption change was measured at 15 to 25 minutes (reaction was linear for at least 30 minutes). […] IC50 values were determined from the linear portion of the log concentration vs percent inhibition curve obtained from a minimum of 3 points. […]

In experiment [4] the test system is almond β-glucosidase. Nature of the experiment: β-Glucosidase inhibition assay, pH 7.4. Conditions: 5 mM test compound. On the procedure:
as §1, §3
To 100 ul 50 mM HEPES buffer, pH 7.4, in a microtiter plate, 20 ul test compound in DMSO (DMSO alone in control) and 40 ul (0.136 units) β-glucosidase (Sigma) in HEPES buffer were added and preincubated at room temperature 15 minutes. 40 ul 1.25 mM p-nitrophenyl-β-D-glucopyranoside in HEPES buffer was added as substrate and the absorbance change at 405 nm was monitored utilizing a Biotek EIA Autoreader. Absorption change was measured at 15 to 25 minutes (reaction is linear for at least 30 minutes). […] IC50 values were determined from the linear portion of the log concentration vs percent inhibition curve obtained from a minimum of 3 points. […]

Molecules are shown by their SMILES.

`OC[C@H]1NC[C@H](O)[C@@H](O)[C@@H]1F` [Compound 1, 1,4-dideoxy-4-fluoronojirimycin]: in the experiment with almond β-glucosidase [1], the “BETA GLUCOSIDASE pH 4.8 (enzyme inhibition)” value was 17%. Also, the inhibition (usually the drop in the measured response relative to a control, in per cent) at 5000 µM at alpha mannosidase [2] is -2%; on alpha mannosidase [3] it was 12%; at yeast α-glucosidase, 18%. Further, the “BETA GLUCOSIDASE pH 7.4 (enzyme inhibition)” value in the experiment on almond β-glucosidase [4] worked out at 13%.
Consider `CCCCN1C[C@H](O)[C@@H](O)[C@H](F)[C@H]1CO` [Compound 2, N-butyl-1,4-dideoxy-4-fluoronojirimycin], for which, in the experiment with almond β-glucosidase [1], the “BETA GLUCOSIDASE pH 4.8 (enzyme inhibition)” value stood at 13%. In addition, the inhibition at 5000 µM at alpha mannosidase [2] was -3%; on alpha mannosidase [3], 6%; on yeast α-glucosidase, 28%. Besides, in the experiment on almond β-glucosidase [4], the “BETA GLUCOSIDASE pH 7.4 (enzyme inhibition)” value was 14%.
